The text below walks through data of patent JP2009062322A, “肝実質細胞再生促進剤” (Minophagen Pharmaceutical Co Ltd, priority 2007, dated 2009).

pEC50: −log10 of the molar value.

The term pEC50 denotes the negative decadic logarithm of the EC50, by convention in mol/L. A lower pEC50 goes with a high EC50.

This assay relates to primary cultured hepatic parenchymal cells (初代培養肝実質細胞). In words: Proliferation of primary cultured rat hepatic parenchymal cells: DNA synthesis (3H-thymidine incorporation) and number of nuclei. To be noted: for pEC50: Rattus norvegicus; for proliferation-promoting effect: compound alone, low-density culture, 4 h, result in words. On the technique in general: Dividing cells build labelled thymidine or BrdU into new DNA.

For `C[C@]1(C(=O)O)CC[C@]2(C)CC[C@]3(C)C(=CC[C@@H]4[C@@]5(C)CC[C@H](O)[C@](C)(CO)[C@@H]5CC[C@]43C)[C@@H]2C1` [化合物(12)], the negative-log EC50 (pEC50) is 8.40 and the proliferation-promoting effect entry is “用量依存的に促進効果を示した”.

For `CC1(C)[C@@H](O)CC[C@]2(C)[C@H]3CC=C4[C@@H]5C[C@@](C)(C(=O)O)CC[C@]5(C)CC[C@@]4(C)[C@]3(C)CC[C@@H]12` [化合物(11), 11−デオキソグリチルレチン酸], the pEC50 is 10.40 and the proliferation-promoting effect result is listed as “用量依存的に促進効果を示した”. In addition, the “proliferation-promoting effect relative to glycyrrhetinic acid (by EC50)” value (fold stronger than glycyrrhetinic acid (グリチルレチン酸), by EC50 value) is recorded as ~100 倍 (fold).

Regarding `CC1(C)[C@@H](O)CC[C@]2(C)[C@H]3C(=O)C=C4[C@@H]5C[C@@](C)(C(=O)O)CC[C@]5(C)CC[C@@]4(C)[C@]3(C)CC[C@@H]12` [グリチルレチン酸, reference compound], the pEC50 was 8.30 and the proliferation-promoting effect entry was “用量依存的に促進効果を示した”.
